Results from US12643867B2, “Compositions and uses thereof” (University of Virginia Patent Foundation, priority 2017, dated 2026).

Target: T1, DGKZ (Diacylglycerol kinase zeta) (Homo sapiens, UniProt Q13574)
T1 construct: expressed in transfected cells; host or cells: SILAC HEK293T
Experiment: SILAC LC-MS ATP acyl phosphate probe competition, recombinant DGK-HEK293T lysates
Format: binding
Settings: ATP 1 mM, Ketanserin, Ritanserin 100 μM, RF001 1 mM; for SILAC ratio, DGKZ C1 probe-modified peptide: site C1 (K323); for SILAC ratio, DGKZ DAGKa probe-modified peptide: site DAGKa (K662); for SILAC ratio, DGKZ DAGKc probe-modified peptide: site DAGKc (K500)
Text: Recombinant DGK proteins were produced by transient transfection of HEK293T cells with recombinant DNA. pDONR223-DGKK was a gift from William Hahn & David Root (Addgene plasmid #23487). pCSF107mT-GATEWAY-3′-FLAG was a gift from Todd Stukenberg (Addgene plasmid #67619). pCSF107mT-DGKK-FLAG construct was generated by recombination of the Addgene plasmids using the Gateway cloning system (Invitrogen). All other vectors were gifted to Dr. Kevin Lynch (University of Virginia, School of Medicine) by Dr. Kaoru Goto (Yamagata University, School of Medicine) and Dr. Fumio Sakane (Chiba University) and were kindly shared with us: pcDNA3-FLAG-DGKA (rat), pCMV-Tag2B-FLAG-DGKQ (human), pcDNA3-DGKE-3×Flag (human), and pCMV-SPORT6-HA-DGKZ (human). HEK293T cells were plated at a concentration of 400,000 cells in complete DMEM and grown to 50-60% confluency. A polyethyleneimine (PEI) stock solution was prepared (1 mg/mL, pH 7.4) and filter sterilized. Serum-free DMEM (600 μL) was mixed gently with 2.6 μg DNA and 20 μL of sterile PEI (1 mg/mL, pH 7.4) in a sterile microfuge tube. Mixtures were incubated for 30 min at 25° C. The mixture was then added drop-wise to each 10 cm^2 plate, rocked back and forth to mix, and placed back in the incubator. Cell pellets were harvested after two full days of growth, snap-frozen in liquid N2, and stored at −80° C. until use. Recombinant proteins were produced by transient transfection in SILAC HEK293T cells using the procedure described above, except that cells were plated at a concentration of 1×10^6 cells per 10 cm^2 plate and grown to ˜70% confluency prior to introducing transfection mixture.
Proteomes were diluted to 2 mg/ml in kinase buffer. The light and heavy proteomes (0.5 mg, 250 μL total reaction volume) were pre-treated with vehicle or compound, respectively (5 μL, DMSO (light) or 50× stock in DMSO (heavy)), mixed gently, and incubated at 25° C. for 30 min. […] After incubation, matched light and heavy proteomes were transferred and mixed in a 1:1 ratio in a two-dram vial containing 4:1:3 MeOH/CHCl3/H2O (2 mL MeOH, 500 AL CHCl3, 1.5 mL H2O) for extraction of proteins to remove excess probe, quickly vortexed, and centrifuged at 1,400×g for 3 min to pellet protein. Organic and aqueous layers were removed using a Pasteur pipette, and the protein pellet was transferred to a screw-top tube in 600 μL MeOH. A second extraction was performed by adding CHCl3 (150 μL) and H2O (600 μL) to each sample, vortexed, and centrifuged at 1,400×g for 3 min to pellet protein. Organic and aqueous layers were removed by pipetting. MeOH added to pellet (600 μL) and pellets were re-suspended by sonication (3×1 sec pulse, 20% amplitude) for a final extraction. Samples were then centrifuged at 17,000×g for 5 min to pellet protein and MeOH was removed by pipetting. The pellets were re-suspended in 10 M urea/25 mM ammonium bicarbonate ([…]), brought to a final volume of 1 mL with 25 mM ammonium bicarbonate, reduced with 10 mM DTT for 15 min at 65° C. allowed to cool, and then alkylated with 40 mM iodoacetamide for 30 min at 25° C. in the dark. To desalt the samples, each was transferred to a two-dram glass vial, and to the vial 4:1:2 MeOH/CHCl3/H2O (2 mL MeOH, 500 AL CHCl3, 1 mL H2O) was added. The vials were vortexed quickly, spun at 1.400×g for 3 min to pellet protein, and aqueous and organic layers were removed using a Pasteur pipette. The resulting protein pellet was transferred to a screw-top tube in 600 μL MeOH, and then CHCl3 (150 μL) and HO (600 μL) were added to extract protein a second time. The samples were vortexed quickly, centrifuged at 1,400×g to pellet protein, and the aqueous and organic layers were removed by pipetting. Resulting protein pellet was suspended in MeOH (600 μL) via sonication (3×1 sec pulse, 20% amplitude), centrifuged at 17,000×g for 5 min to pellet protein, and MeOH removed by pipetting. […]

T1 sequence (Q13574 whole entry): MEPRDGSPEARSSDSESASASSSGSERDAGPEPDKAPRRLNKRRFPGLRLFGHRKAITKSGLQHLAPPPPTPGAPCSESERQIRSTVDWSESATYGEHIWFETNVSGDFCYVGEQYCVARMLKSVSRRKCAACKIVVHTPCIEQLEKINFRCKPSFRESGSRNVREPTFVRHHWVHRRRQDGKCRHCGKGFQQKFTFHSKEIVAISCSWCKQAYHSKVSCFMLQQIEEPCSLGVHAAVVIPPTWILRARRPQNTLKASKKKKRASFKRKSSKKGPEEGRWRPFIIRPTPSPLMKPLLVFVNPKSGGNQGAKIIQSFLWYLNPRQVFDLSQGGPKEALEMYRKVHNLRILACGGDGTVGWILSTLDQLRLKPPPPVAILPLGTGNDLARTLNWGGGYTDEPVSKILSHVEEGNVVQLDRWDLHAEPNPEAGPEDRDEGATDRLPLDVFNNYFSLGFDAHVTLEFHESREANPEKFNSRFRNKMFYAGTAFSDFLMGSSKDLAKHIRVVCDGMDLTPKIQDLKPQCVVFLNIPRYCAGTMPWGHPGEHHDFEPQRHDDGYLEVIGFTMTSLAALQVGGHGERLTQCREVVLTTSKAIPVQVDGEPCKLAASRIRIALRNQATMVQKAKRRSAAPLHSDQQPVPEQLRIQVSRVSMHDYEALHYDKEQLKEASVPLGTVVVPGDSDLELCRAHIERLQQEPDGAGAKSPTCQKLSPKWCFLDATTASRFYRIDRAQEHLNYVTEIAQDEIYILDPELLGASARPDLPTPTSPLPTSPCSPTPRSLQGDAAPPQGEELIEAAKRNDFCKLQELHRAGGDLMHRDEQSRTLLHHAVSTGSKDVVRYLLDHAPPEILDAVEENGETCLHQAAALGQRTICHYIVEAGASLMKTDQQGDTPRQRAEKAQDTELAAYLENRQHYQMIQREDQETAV

SILAC ratio, DGKZ C1 probe-modified peptide	SILAC ratio, DGKZ DAGKa probe-modified peptide	SILAC ratio, DGKZ DAGKc probe-modified peptide	Structure (SMILES)
1.3	1.4	1.5	O=C(c1ccc(F)cc1)C1CCN(CCn2c(=O)[nH]c3ccccc3c2=O)CC1 [Ketanserin]
1.1	1.1	0.9	Fc1ccc(C(=C2CCNCC2)c2ccc(F)cc2)cc1 [RF001, 4-(Bis(4-fluorophenyl)methylene) piperidine]

Structure (SMILES)	SILAC ratio, DGKZ C1 probe-modified peptide	SILAC ratio, DGKZ DAGKa probe-modified peptide	SILAC ratio, DGKZ DAGKc probe-modified peptide
Cc1nc2sccn2c(=O)c1CCN1CCC(=C(c2ccc(F)cc2)c2ccc(F)cc2)CC1 [Ritanserin]	1.4	1.8	1.2
